Data set [1] deals with Cyp1a1. In words: In Vivo Mouse liver and spleen Cyp1a1 Modulation Assay (Example 1E). Also on record: species or system C57BL/6 mice. The conditions noted are these: po, dose 30 mg/kg, with AHR agonist VAG539 30 mg/kg po, qPCR. How it is done:
C57BL/6 mice, female, 6-8 weeks old, weighing approximately 18-20 g were purchased from Shanghai Lingchang Biological Technology Co., Ltd or other certified vendors and used in the studies. Animal husbandry, feeding and health conditions are according to animal welfare guidelines. VAG539 (30 mg/kg, po) was used as AHRagonist, and test compounds were formulated in suitable vehicles, typically 0.5% methylcellulose).
C57BL/6 mice (n=3 per group) were treated with AHR agonist alone or with AHR agonist and test compounds. Animals were sacrificed at 4 or 10 hours after treatment upon which their livers and spleens were collected and subsequently analyzed by qPCR. Normalized fold induction of cyp1a1 was determined by comparing mCYP1A1 and mGAPDH counts (ct) according to: normalized fold=2^−ΔΔCt. The percent inhibition was calculated according to: […]

Data set [2] is described as follows: In Vitro Mouse liver S9 Metabolic Stability Assay (Example 1D). The format is in vitro ADME. The conditions noted are these: CD-1 mouse liver S9, 1 μM compound, 1 mg/mL S9 protein, 37° C., NADPH regenerating system, UDPGA, PAPS. Put shortly: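 Compound at 1 μM final (0.1% DMSO) incubated at 37° C with pooled CD-1 mouse liver S9 (1 mg/mL protein) plus NADPH-regenerating system, UDPGA and PAPS. Samples at 0 and 60 min quenched in cold acetonitrile with internal standard; LC-MS/MS analyte/IS peak-area ratios give % remaining at 60 min.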

The target of data set [3] is T1, AHR (UniProt P35869).
T1 construct: IC50
T1 sequence (P35869 1-848): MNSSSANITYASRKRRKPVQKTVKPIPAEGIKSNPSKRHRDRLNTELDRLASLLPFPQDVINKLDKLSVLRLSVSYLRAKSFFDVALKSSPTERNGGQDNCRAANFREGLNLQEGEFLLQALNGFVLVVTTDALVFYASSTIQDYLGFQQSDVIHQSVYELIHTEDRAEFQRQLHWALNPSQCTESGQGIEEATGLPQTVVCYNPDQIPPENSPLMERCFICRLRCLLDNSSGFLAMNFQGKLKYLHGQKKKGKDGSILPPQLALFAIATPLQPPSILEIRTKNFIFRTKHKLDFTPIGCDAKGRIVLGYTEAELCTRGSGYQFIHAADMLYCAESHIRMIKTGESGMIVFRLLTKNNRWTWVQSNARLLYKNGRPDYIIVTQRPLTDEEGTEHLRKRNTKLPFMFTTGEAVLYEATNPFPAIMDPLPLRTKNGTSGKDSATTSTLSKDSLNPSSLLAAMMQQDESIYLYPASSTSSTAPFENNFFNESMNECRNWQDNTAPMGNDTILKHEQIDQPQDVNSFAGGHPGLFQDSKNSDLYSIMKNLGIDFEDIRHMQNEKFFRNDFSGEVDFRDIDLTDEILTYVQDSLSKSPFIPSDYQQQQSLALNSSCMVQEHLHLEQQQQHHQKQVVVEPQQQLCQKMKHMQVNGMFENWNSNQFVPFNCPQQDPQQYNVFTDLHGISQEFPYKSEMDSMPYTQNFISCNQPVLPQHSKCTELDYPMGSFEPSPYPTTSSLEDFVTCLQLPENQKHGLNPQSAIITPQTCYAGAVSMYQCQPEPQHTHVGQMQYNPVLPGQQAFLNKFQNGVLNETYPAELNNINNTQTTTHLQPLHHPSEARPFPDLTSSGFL
In words: DRE-Luciferase Reporter Assay (Alternate Method) (Example 1B). The format is cell-based, murine or human. Conditions: cell line and AHR activating ligand not specified. For orientation: A reporter such as luciferase makes a cellular process visible.

The nature of data set [4]: Mouse Pharmacokinetic Study (Example 1C). Type of data set: in vivo. Conditions: mouse, plasma, CD-1 mice; for Vd: read-out: Vdss. A digest of the protocol: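 CD-1 mice dosed intravenously or by oral gavage; plasma sampled at 0.167, 0.5, 1, 2, 4, 6, 12 and 24 h post-dose. Samples analyzed by LC/MS/MS (MRM, positive mode) against a plasma standard curve of 1.0–3000 ng/mL; PK parameters from non-compartmental analysis.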

The target in data set [5] is T1, AHR. Briefly: DRE-Luciferase Reporter Assay (Example 1A). Type of data set: cell-based, murine or human. The conditions noted are these: cell line and AHR activating ligand not specified. The procedure:
AHR binds to Dioxin Responsive Elements (DRE) upstream of genes that it activates. One measure of AHR activity is activation of a reporter gene, such as luciferase, downstream of one or multiple DRE elements. Luciferase activity will reflect activation and inhibition of AHR in the cells expressing his reporter.
Murine Hepa1-6 or Hepa-1c1c7 or other murine cell line with a DRE-luciferase reporter either stably or transiently transfected were plated in media in plates (96-well, 384-well or other plates) and incubated overnight at 37° C. in a CO2 incubator. Likewise, human HepG2 or other human cell line with a DRE-luciferase reporter either stably or transiently transfected were plated in media in plates (96-well, 384-well or other plates) and incubated overnight at 37° C. in a CO2 incubator.
The next day, an AHR activating ligand, such as TCDD, kynurenine, ITE (2-(1H-indole-3-ylcarbonyl)-4-thiazolecarboxylic methyl ester), VAF347, BNF (beta-naphthoflavone), FICZ (6-formylindolo(3,2-b) carbazole or other AHR ligands, was added with or without AHR antagonist.
Cells were incubated for 4, 15 or 24 hours or another time point and then lysed for determination of luciferase activity as a read-out of the AHR activation or inhibition. Luciferase was measured with a commercial kit such as the Promega Luciferase kit or any kit or reagents that provide the luciferin substrate for measuring luciferase activity. The level of luciferase with only activating ligand added was the maximum signal while the luciferase with no ligand was the minimum signal. IC50 values were determined as the concentration which inhibits half of the luciferase activity.

Where [6] appears, read: 4 h, read-out: Cyp1a1 inhibition, Liver, 4 h.

pIC50: −log10 of the molar value. Read-outs that look alike come from different tables or passages of the source.

Regarding `Fc1cncc(-c2cc(NCCc3c[nH]c4ccccc34)n3ncc(Br)c3n2)c1` [I-39, 3-Bromo-5-(5-fluoro-3-pyridyl)-N-[2-(1H-indol-3-yl)ethyl]pyrazolo[1,5-a]pyrimidin-7-amine], the inhibition (commonly the drop in the measured response relative to a control, in per cent) at 30 mg/kg in data set [1] (setting [6]) was 90%. The inhibition at 30 mg/kg in data set [1] (4 h, read-out: Cyp1a1 inhibition, Spleen, 4 h) is 69%. The “Mouse S9 Stability: % Remaining After 60 Minutes” value in data set [2] is listed as 30%. In addition, the pIC50 (commonly −log10 of the IC50, conventionally taken in molar units) in data set [3] is over 6.30. In addition, in data set [4] (po, 30 mg/kg), the bioavailability (commonly dose-corrected exposure relative to a reference, in per cent) is 17%; the AUC(0-inf) (in general, total exposure, with the tail of the curve extrapolated) was 1610 ng·h/mL; the AUC(0-t) (as a rule, exposure summed from dosing to a finite time, without extrapolation to infinity) came to 1600 ng·h/mL; the Cmax (as a rule, the peak of the concentration-time curve) amounted to 799 ng/mL. For the same molecule, in data set [4] (po, 30 mg/kg), the half-life – broadly, how long it takes for the measured level to halve – was 3.35 h. In data set [4] (iv, 3 mg/kg), the AUC(0-inf) was found to be 931 ng·h/mL; the AUC(0-t) worked out at 908 ng·h/mL; the clearance (as a rule, a measure of how efficiently the substance is removed, as volume per time) came out at 53.7 mL/min/kg; the half-life is 1.31 h. In addition, in data set [4] (iv, 3 mg/kg), the Vd came to 3.5 L/kg.
In the case of `CC(C)c1n[nH]c2c(NCCc3c[nH]c4ccccc34)nc(-c3cncc(F)c3)nc12` [I-1, 5-(5-Fluoro-3-pyridyl)-N-[2-(1H-indol-3-yl)ethyl]-3-isopropyl-1H-pyrazolo[4,3-d]pyrimidin-7-amine], the pIC50 was 5.82 to 6.00 in data set [5] and over 6.30 in data set [3].
As for `CC(C)n1cnc2c(NCCc3c[nH]c4cccnc34)nc(-c3cncc(F)c3)nc21` [I-7, 2-(5-Fluoro-3-pyridyl)-9-isopropyl-N-[2-(1H-pyrrolo[3,2-b]pyridin-3-yl)ethyl]purin-6-amine], the results for the pIC50 in data set [5] and in data set [3] were over 6.30 and under 5.82, respectively.
In the same order, the values of `CC(C)c1ccc2c(NCCc3c[nH]c4ccccc34)nc(-c3cncc(F)c3)nn12` [I-19, N-(2-(1H-Indol-3-yl)ethyl)-2-(5-fluoropyridin-3-yl)-7-isopropylpyrrolo[2,1-f][1,2,4]triazin-4-amine] are 6.00 to 6.30 and over 6.30.
In the same order, the values of `CC(C)c1csc2c(NCCc3c[nH]c4ccccc34)nc(-c3cncc(F)c3)nc12` [I-3, N-(2-(1H-indol-3-yl)ethyl)-2-(5-fluoropyridin-3-yl)-7-isopropylthieno[3,2-d]pyrimidin-4-amine] are 5.82 to 6.00 and over 6.30.
In the same order, the values of `Fc1cncc(-c2nc(NCCc3c[nH]c4ccccc34)c3ccsc3n2)c1` [I-5, N-(2-(1H-indol-3-yl)ethyl)-2-(5-fluoropyridin-3-yl)thieno[2,3-d]pyrimidin-4-amine] are under 5.82 and over 6.30.
For `Fc1cncc(-c2cc(NCCc3c[nH]c4ccccc34)n3nccc3n2)c1` [I-103, 5-(5-Fluoro-3-pyridyl)-N-[2-(1H-indol-3-yl)ethyl]pyrazolo[1,5-a]pyrimidin-7-amine], in data set [1] (setting [6]), the inhibition at 30 mg/kg came to 94%. Also, in data set [1] (10 h, read-out: Cyp1a1 inhibition, Liver, 10 h), the inhibition at 30 mg/kg was found to be 0%. The “Mouse S9 Stability: % Remaining After 60 Minutes” value in data set [2] stood at 7%. In addition, the pIC50 in data set [3] is over 6.30. Also, in data set [4] (po, 30 mg/kg), the bioavailability worked out at 6%, the AUC(0-inf) turned out to be 671 ng·h/mL, the AUC(0-t) turned out to be 649 ng·h/mL and the Cmax was found to be 713 ng/mL. Moreover, in data set [4] (po, 30 mg/kg), the Tmax (as a rule, the time from dosing to the highest level) came out at 0.2 h and the half-life is 2.15 h. Further, in data set [4] (iv, 3 mg/kg), the AUC(0-inf) was 1140 ng·h/mL, the area under the curve AUC(0-t) stood at 1140 ng·h/mL, the clearance stood at 43.9 mL/min/kg and the half-life was 0.62 h. Further, in data set [4] (iv, 3 mg/kg), the Vd was found to be 1.4 L/kg.
Consider `CC(C)c1cnn2c(N[C@@H]3CCc4[nH]c5ccccc5c4C3)cc(-c3cncc(F)c3)nc12` [I-75a, (3R)—N-[5-(5-fluoro-3-pyridyl)-3-isopropyl-pyrazolo[1,5-a]pyrimidin-7-yl]-2,3,4,9-tetrahydro-1H-carbazol-3-amine], for which the inhibition at 30 mg/kg in data set [1] (setting [6]) was 55%. Besides, the “Mouse S9 Stability: % Remaining After 60 Minutes” value in data set [2] was 65%. The pIC50 in data set [3] is under 5.82. Further, in data set [4] (po, 30 mg/kg), the bioavailability turned out to be 51%, the Cmax stood at 969 ng/mL, the Tmax was determined as 2 h and the half-life was 9.8 h. For the same molecule, in data set [4] (iv, 3 mg/kg), the AUC(0-inf) was determined as 2260 ng·h/mL, the AUC(0-t) came out at 2670 ng·h/mL, the clearance is 14.4 mL/min/kg and the half-life was 13.8 h. In addition, the Vd in data set [4] (iv, 3 mg/kg) was determined as 13.7 L/kg.

The record behind these values is patent publication US11358969B2, “Indole AHR inhibitors and uses thereof” (Ikena Oncology, Inc., priority 2017, dated 2022).
